In US6638919B2, “Antiviral purine derivatives” (University College Cardiff Consultants Limited, priority 2001, dated 2003):
“Also recorded” adds a separate entry of the source. Where two headings read alike, the source gives them in different places.

Key:
HIV-2 [1] = details: Table II, known data disclosed in PCT/GB96/00580; read-out: EC50/μM HIV-2 CEM; cited from earlier work
HIV-1 [2] = details: read-out: EC50/μM HIV-1 CEM; Table II, known data disclosed in PCT/GB96/00580; cited from earlier work
CEM cells [3] = details: cited from earlier work
[4] = Acid stability, dilute HCl pH1, simulated stomach conditions; format: physicochemical; details: 0.1N HCl pH1, 25° C.
Protocol: Compounds were tested for their stability towards acid-mediated hydrolytic decomposition employing a test designed to simulate stomach conditions. Each compound was incubated in dilute HCl of pH1 for 24 hours at 25° C. 0.3 mg of compound were added to 1 mL of 0.1N HCl at 25° C. HPLC was run immediately for time=0 and at intervals up to approximately 24 hours.

[5] = human, plasma
Protocol: (§5) Each compound was incubated in normal heparinised human plasma at 37° C. for 4 hours. […] Drug concentrations were then determined by LC/MS/MS analysis using standard methods.

[6] = Biological stability in heparinised human plasma
Protocol: as §5

HIV-1 [7] = assay: Inhibition of HIV-1 giant cell formation in CEM cells; format: cell-based
Protocol: (§1) Then 100 μL of the infected cell suspension was transferred to microtiter plate wells and mixed with 100 μL of the appropriate dilutions of the test compounds.
HIV 1 CEM: EC50 in μM for inhibition of HIV1 in CEM cells

HIV-2 [8] = assay: Inhibition of HIV-2 giant cell formation in CEM cells; format: cell-based
Protocol: as §1
HIV1 CEM: EC50 in μM for inhibition of […] in CEM cells.
HIV2 CEM: EC50 in μM for inhibition of HIV-2 in CEM cells

CEM cells [9] = assay: Toxicity to mock-infected CEM cells (CC50); format: cell-based
Protocol: as §1
(§2) CC50 CEM: CC50 in μM for toxicity to CEM cells.
(§3) CC50 CEM: CC50 μM for toxicity to CEM cells

MSV [10] = assay: Inhibition of MSV; format: cell-based; details: Table III; inhibition of MSV; read-out: EC50 MSV
Protocol: EC50 MSV: EC50 μM for inhibition of MSV

MSV [11] = assay: Minimum cytotoxic concentration in MSV assay; format: cell-based; parameters: unit not given here; details: Table III
From the text: MCC MSV: minimum cytotoxic concentration in MSV essay.

HIV-1 [12] = assay: Inhibition of HIV-1 giant cell formation in CEM cells; format: cell-based; details: mean increase in potency of phosphoramidate versus its parent nucleoside for HIV 1 and HIV 2
[13] = Solution stability of salt forms; format: physicochemical; details: % of parent (AUC) after 27 hr at room temperature
From the text: (§4) The solubility and solution/solid state stability of three salt forms of (1S, 4R)-4-[2-amino-5(cyclopropylamino)-9(H)-purin-9-yl]-2-cyclopentene-1-methanol O-(phenyl ethoxy-L-alaninyl) phosphate

[14] = Solid state stability of salt forms; format: physicochemical; details: % of parent (AUC) after two weeks at 60° C.
From the text: as §4

Solid type of salt forms = format: physicochemical
[15] = Toxicity to mock-infected CEM cells (CC50); format: cell-based; details: human; mock-infected CEM cells; Tables I and II; read-out: CC50/μM CEM
Protocol: as §1, §2, §3

[16] = heparinised human plasma, 37° C.
[17] = Table III, EC50 for inhibition of HIV-2 in CEM cells, read-out: HIV2 CBM

## CCOC(=O)[C@H](C)NP(=O)(OC[C@@H]1C=C[C@H](n2cc(C)c(=O)[nH]c2=O)O1)Oc1ccccc1 (stereo partly shown) [Compound 951, 2′, 3′-dideoxy-2′, 3′-didehydrothymidine 5′-(phenylexthoxyalaninyl) phosphoramidate]
HIV-2 [1]
  EC50: 0.07 µM
HIV-1 [2]
  EC50: 0.1 µM
CEM cells [3]
  CC50: 5.5 µM

## COC(=O)C[C@H](NP(=O)(OC[C@@H]1C=C[C@H](n2cc(C)c(=O)[nH]c2=O)O1)Oc1ccccc1)C(=O)OC (stereo partly shown) [Compound 1078, 2′, 3′-dideoxy-2′, 3′-didehydrothymidine 5′-(phenyldimethoxyaspartyl) phosphoramidate]
HIV-2 [1]
  EC50: 0.65 µM
HIV-1 [2]
  EC50: 0.55 µM
CEM cells [3]
  CC50: 209 µM

## COC(=O)C(C)NP(=O)(OC[C@@H]1CC[C@H](n2cnc3c(N)ncnc32)O1)Oc1ccccc1 (stereo partly shown) [Compound 1093, 2′, 3′-dideoxy adenosine 5′-(phenylmethoxyalaninyl) phosphoramidate]
[4]
  time to degradation in acid: less than 13 hours
[4]; time 0 hr
  Compound left (%): 100%
[4]; time 13 hr
  Compound left (%): 0%
[5]
  % Remaining at 4 hours: 50%
HIV-2 [1]
  EC50: 0.035 µM
HIV-1 [2]
  EC50: 0.016 µM
CEM cells [3]; read-out: CC50/μM CEM, Table II, known data disclosed in PCT/GB96/00580
  CC50: 2.57 µM
[6]; [16]
  Half-life: 4.2 h

## COC(=O)[C@H](C)NP(=O)(OC[C@@H]1C=C[C@H](n2cnc3c(NC4CC4)nc(N)nc32)C1)Oc1ccccc1 (stereo partly drawn) [Compound 1490, (1S,4R)-4-(2-amino-6-cyclopropylamino-9H-purin-9-yl)-2-cyclopentene-1-methanol O-[phenyl-(methoxy-L-alaninyl)]-phosphate]
HIV-1 [7]; CEM cells, giant cell formation after 4 days, Tables I and II, read-out: EC50/μM HIV-1 CEM
  EC50: 0.07 µM
HIV-2 [8]; CEM cells, giant cell formation after 4 days, Tables I and II, read-out: EC50/μM HIV-2 CEM
  EC50: 0.09 µM
HIV-2 [8]; [17]
  EC50: 0.05 µM
CEM cells [9]
  CC50: 13.1 µM
MSV [10]
  EC50: 1.6 µM
MSV [11]
  MCCMSV: >4
HIV-1 [12]
  Fold Improvement: 30.2

## CCOC(=O)[C@H](C)NP(=O)(OC[C@@H]1C=C[C@H](n2cnc3c(NC4CC4)nc(N)nc32)C1)Oc1ccccc1 (stereo partly drawn) [Compound 1587, (1S,4R)-4-(2-amino-6cyclopropylamino-9H-purin-9-yl)-2-cyclopentene-1-methaanol O-[phenyl-(ethoxy-L-alaninyl)]-phosphate]
HIV-1 [7]; Table III, EC50 for inhibition of HIV1 in CEM cells, read-out: HIV1 CBM
  EC50: 0.07 µM
HIV-2 [8]; [17]
  EC50: 0.06 µM
CEM cells [9]; Table III, toxicity to CEM cells, read-out: CC50 CEN
  CC50: 12.1 µM
[4]; after 22 hours
  acid stability in words: remained in tact
[4]; time 0 hr
  Compound left (%): 100%
[4]; time 22 hr
  Compound left (%): 77%
[13]
  Stability (%) 0.1 N HCl: 69.1%
  Stability (%) HPMC/Tween: 97.6%
  Stability (%) PBS: 98.5%
[14]
  Solid State Stability (%): 93.7%
Solid type of salt forms
  Solid Type: Amorphous; also recorded: Hygroscopic
[6]; [16]
  Half-life: 26 h
[6]; heparinised human plasma, 37° C., 4 hours
  % Remaining at 4 hours: 91%
[6]; human plasma, Table V data
  stability advantage over each of compounds 1001 and 1093: 6 fold

## CCOC(=O)[C@H](C)NP(=O)(OC[C@@H]1C=C[C@H](n2cnc3c(NC4CC4)nc(N)nc32)C1)Oc1ccccc1.O=C(O)/C=C/C(=O)O (stereo partly drawn) [Example 3, (1S,4R)-4-(2-Amino-6cyclopropylamino-9(H)-purin-9-yl)-2-cyclopentene-1-methanol O-(phenylethoxy-L-alaninyl) phosphate Fumarate Salt]
[13]
  Stability (%) 0.1 N HCl: 70.0%
  Stability (%) HPMC/Tween: 98.3%
  Stability (%) PBS: 98.5%
[14]
  Solid State Stability (%): 97.1%
Solid type of salt forms
  Solid Type: crystals

## CCOC(=O)[C@H](C)NP(=O)(OC[C@@H]1C=C[C@H](n2cnc3c(NC4CC4)nc(N)nc32)C1)Oc1ccccc1.O=C(O)CCCC(=O)O (stereo partly drawn) [Example 4, (1S,4R)-4-(2-Amino-6-cyclopropylamino-9(H)-purin-9-yl)-2-cyclopenten-1-methanol O-(phenylethoxy-L-alaninyl) phosphate Glutarate Salt]
[13]
  Stability (%) 0.1 N HCl: 69.3%
  Stability (%) HPMC/Tween: 98.6%
  Stability (%) PBS: 99.9%
[14]
  Solid State Stability (%): 98.9%
Solid type of salt forms
  Solid Type: crystals

## COC(=O)C(C)NP(=O)(OCC1C=CC(n2cnc3c(=O)[nH]c(N)nc32)C1)Oc1ccccc1 [Example A, (1R, 4S)-9-14-(hydroxymethyl)-2-cyclopenten-2-yl] guanine-5′-[phenyl-(methoxy-L-alaninyl)]-phosphate, reference compound]
HIV-1 [7]; Human immunodeficiency virus 1, CCRF-CEM, 96 h, CEM cells, giant cell formation after 4 days, Tables I and II, read-out: EC50/μM HIV-1 CEM
  EC50: 1.3 µM
HIV-2 [8]; Human immunodeficiency virus 2, CCRF-CEM, 96 h, CEM cells, giant cell formation after 4 days, Tables I and II, read-out: EC50/μM HIV-2 CEM
  EC50: 0.85 µM
[15]
  CC50: 123 µM
HIV-1 [12]
  Fold Improvement: 1.9
